Measured values taken from ChEMBL document CHEMBL1201862, “PubChem BioAssay data set” (2004).
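Following 48 hours of exposure in 96-well plates, responses at five concentrations were used to interpolate endpoints linearly. GI50 = concentration required for 50% inhibition of growth.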 The source made the active and inactive calls. Rule as the data show it: active = GI50 up to about 1.1 µM and inactive = higher.

Key:
Assay in all cases: NCI-60 cell line screen, 48 h
786-0 = tested on: 786-0
A498 = tested on: A498
A549 = tested on: A549
ACHN = tested on: ACHN
CAKI-1 = tested on: CAKI-1
CCRF-CEM = tested on: CCRF-CEM
COLO 205 = tested on: COLO 205
DU-145 = tested on: DU-145
EKVX = tested on: EKVX
HCC 2998 = tested on: HCC 2998
HCT-116 = tested on: HCT-116
HCT-15 = tested on: HCT-15
HL-60 = tested on: HL-60
HOP-62 = tested on: HOP-62
HOP-92 = tested on: HOP-92
HT-29 = tested on: HT-29
Hs-578T = tested on: Hs-578T
IGROV-1 = tested on: IGROV-1
K562 = tested on: K562
KM12 = tested on: KM12
LOX IMVI = tested on: LOX IMVI
M14 = tested on: M14
MCF7 = tested on: MCF7
MDA-MB-231 = tested on: MDA-MB-231
MDA-MB-435 = tested on: MDA-MB-435
MDA-N = tested on: MDA-N
MOLT-4 = tested on: MOLT-4
NCI-H226 = tested on: NCI-H226
NCI-H23 = tested on: NCI-H23
NCI-H460 = tested on: NCI-H460
NCI-H522 = tested on: NCI-H522
NCI/ADR-RES = tested on: NCI/ADR-RES
OVCAR-3 = tested on: OVCAR-3
OVCAR-4 = tested on: OVCAR-4
OVCAR-5 = tested on: OVCAR-5
OVCAR-8 = tested on: OVCAR-8
PC-3 = tested on: PC-3
RPMI-8226 = tested on: RPMI-8226
SF-268 = tested on: SF-268
SF-295 = tested on: SF-295
SF-539 = tested on: SF-539
SK-MEL-28 = tested on: SK-MEL-28
SK-MEL-2 = tested on: SK-MEL-2
SK-MEL-5 = tested on: SK-MEL-5
SK-OV-3 = tested on: SK-OV-3
SN12C = tested on: SN12C
SNB-19 = tested on: SNB-19
SNB-75 = tested on: SNB-75
SR = tested on: SR
SW-620 = tested on: SW-620
T47D = tested on: T47D
TK-10 = tested on: TK-10
U-251 = tested on: U-251
UACC-257 = tested on: UACC-257
UACC-62 = tested on: UACC-62
UO-31 = tested on: UO-31
Malme-3M = tested on: Malme-3M
RXF 393 = tested on: RXF 393

## O=C1/C(=C\c2ccc([N+](=O)[O-])cc2)Sc2scc(-c3ccc(O)c(O)c3)[n+]21
786-0
  GI50: 3.73 µM (inactive)
A498
  GI50: > 10 µM (inactive)
A549
  GI50: 17.6 µM (inactive)
ACHN
  GI50: 6.82 µM (inactive)
CAKI-1
  GI50: 2.77 µM (inactive)
CCRF-CEM
  GI50: 2.68 µM (inactive)
COLO 205
  GI50: 2.34 µM (inactive)
DU-145
  GI50: 13.5 µM (inactive)
EKVX
  GI50: 14.2 µM (inactive)
HCC 2998
  GI50: 4.97 µM (inactive)
HCT-116
  GI50: 4.2 µM (inactive)
HCT-15
  GI50: 2.33 µM
HL-60
  GI50: 2.37 µM (inactive)
HOP-62
  GI50: 13.4 µM (inactive)
HOP-92
  GI50: 6.4 µM (inactive)
HT-29
  GI50: 3.31 µM (inactive)
Hs-578T
  GI50: 14.7 µM (inactive)
IGROV-1
  GI50: 5.11 µM (inactive)
K562
  GI50: 3.4 µM (inactive)
KM12
  GI50: 10.9 µM (inactive)
LOX IMVI
  GI50: 5.61 µM (inactive)
M14
  GI50: 5.81 µM (inactive)
MCF7
  GI50: 3.56 µM (inactive)
MDA-MB-231
  GI50: 10.9 µM (inactive)
MDA-MB-435
  GI50: 9.75 µM (inactive)
MDA-N
  GI50: 5.41 µM (inactive)
MOLT-4
  GI50: 2.62 µM (inactive)
NCI-H226
  GI50: 17.8 µM (inactive)
NCI-H23
  GI50: 14.9 µM (inactive)
NCI-H460
  GI50: 4.06 µM (inactive)
NCI-H522
  GI50: 1.76 µM (inactive)
NCI/ADR-RES
  GI50: 4.84 µM (inactive)
OVCAR-3
  GI50: 2.51 µM (inactive)
OVCAR-4
  GI50: 10.6 µM (inactive)
OVCAR-5
  GI50: 15.3 µM (inactive)
OVCAR-8
  GI50: 4.45 µM (inactive)
PC-3
  GI50: 5.71 µM (inactive)
RPMI-8226
  GI50: 2.55 µM (inactive)
SF-268
  GI50: 4.94 µM (inactive)
SF-295
  GI50: 12.5 µM (inactive)
SF-539
  GI50: 5.02 µM (inactive)
SK-MEL-28
  GI50: 12.3 µM (inactive)
SK-MEL-2
  GI50: 14.7 µM (inactive)
SK-MEL-5
  GI50: 3.87 µM (inactive)
SK-OV-3
  GI50: 12.7 µM (inactive)
SN12C
  GI50: 4.5 µM (inactive)
SNB-19
  GI50: 21.6 µM (inactive)
SNB-75
  GI50: 9.25 µM (inactive)
SR
  GI50: 2.62 µM (inactive)
SW-620
  GI50: 3.4 µM (inactive)
T47D
  GI50: 12.8 µM (inactive)
TK-10
  GI50: 2.26 µM (inactive)
U-251
  GI50: 6.4 µM (inactive)
UACC-257
  GI50: 6.87 µM (inactive)
UACC-62
  GI50: 5.61 µM (inactive)
UO-31
  GI50: 4.72 µM (inactive)

## CCC(c1ccc(N(C)C)cc1)C1NC(=S)NC1=O (centres undefined)
786-0
  GI50: > 100 µM (inactive)
A498
  GI50: 50.6 µM (inactive)
A549
  GI50: > 100 µM (inactive)
ACHN
  GI50: > 100 µM (inactive)
CAKI-1
  GI50: > 100 µM (inactive)
CCRF-CEM
  GI50: 48.9 µM (inactive)
COLO 205
  GI50: 98.2 µM (inactive)
DU-145
  GI50: > 100 µM (inactive)
EKVX
  GI50: 51.5 µM (inactive)
HCC 2998
  GI50: > 100 µM (inactive)
HCT-116
  GI50: 47 µM (inactive)
HCT-15
  GI50: 40.2 µM
HL-60
  GI50: 17.5 µM (inactive)
HOP-92
  GI50: > 100 µM (inactive)
HT-29
  GI50: 57.1 µM (inactive)
Hs-578T
  GI50: > 100 µM (inactive)
IGROV-1
  GI50: 58.3 µM (inactive)
K562
  GI50: 20.1 µM (inactive)
KM12
  GI50: 62.7 µM (inactive)
LOX IMVI
  GI50: 97.9 µM (inactive)
M14
  GI50: 74.8 µM (inactive)
MCF7
  GI50: > 100 µM (inactive)
MDA-MB-231
  GI50: > 100 µM (inactive)
MDA-MB-435
  GI50: 34.4 µM (inactive)
MDA-N
  GI50: 59.7 µM (inactive)
MOLT-4
  GI50: 30.7 µM (inactive)
Malme-3M
  GI50: > 100 µM (inactive)
NCI-H226
  GI50: 87.3 µM (inactive)
NCI-H23
  GI50: > 100 µM (inactive)
NCI-H460
  GI50: > 100 µM (inactive)
NCI-H522
  GI50: > 100 µM (inactive)
NCI/ADR-RES
  GI50: > 100 µM (inactive)
OVCAR-4
  GI50: 62.7 µM (inactive)
OVCAR-5
  GI50: > 100 µM (inactive)
OVCAR-8
  GI50: > 100 µM (inactive)
RPMI-8226
  GI50: 46 µM (inactive)
RXF 393
  GI50: > 100 µM (inactive)
SF-268
  GI50: > 100 µM (inactive)
SF-295
  GI50: 67.9 µM (inactive)
SF-539
  GI50: > 100 µM (inactive)
SK-MEL-28
  GI50: > 100 µM (inactive)
SK-MEL-5
  GI50: 37.8 µM (inactive)
SK-OV-3
  GI50: > 100 µM (inactive)
SN12C
  GI50: > 100 µM (inactive)
SNB-19
  GI50: > 100 µM (inactive)
SNB-75
  GI50: 85.9 µM (inactive)
SR
  GI50: 8.11 µM (inactive)
SW-620
  GI50: 68.9 µM (inactive)
T47D
  GI50: 78.3 µM (inactive)
TK-10
  GI50: 85.5 µM (inactive)
U-251
  GI50: 86.7 µM (inactive)
UACC-257
  GI50: > 100 µM (inactive)
UO-31
  GI50: 96.8 µM (inactive)

## CSC(Cc1ccc2c(c1)Sc1ccccc1O2)=[N+]1CCOCC1
786-0
  GI50: 88.9 µM (inactive)
A498
  GI50: 46.5 µM (inactive)
A549
  GI50: 63.8 µM (inactive)
ACHN
  GI50: 58.3 µM (inactive)
CAKI-1
  GI50: > 100 µM (inactive)
COLO 205
  GI50: > 100 µM (inactive)
DU-145
  GI50: > 100 µM (inactive)
EKVX
  GI50: 58.1 µM (inactive)
HCC 2998
  GI50: 91.8 µM (inactive)
HCT-116
  GI50: 41.4 µM (inactive)
HCT-15
  GI50: 43.5 µM
HL-60
  GI50: 37.9 µM (inactive)
HOP-62
  GI50: > 100 µM (inactive)
HOP-92
  GI50: 48.5 µM (inactive)
HT-29
  GI50: 43.9 µM (inactive)
Hs-578T
  GI50: 30.7 µM (inactive)
IGROV-1
  GI50: 48.6 µM (inactive)
K562
  GI50: 79.6 µM (inactive)
KM12
  GI50: 51.4 µM (inactive)
LOX IMVI
  GI50: 80.4 µM (inactive)
M14
  GI50: 72.9 µM (inactive)
MCF7
  GI50: 40.2 µM (inactive)
MDA-MB-231
  GI50: > 100 µM (inactive)
MDA-MB-435
  GI50: 33 µM (inactive)
MDA-N
  GI50: 54.5 µM (inactive)
MOLT-4
  GI50: 35.7 µM (inactive)
Malme-3M
  GI50: 26.4 µM (inactive)
NCI-H226
  GI50: 55.8 µM (inactive)
NCI-H23
  GI50: 40.7 µM (inactive)
NCI-H460
  GI50: 48.2 µM (inactive)
NCI/ADR-RES
  GI50: 56.8 µM (inactive)
OVCAR-3
  GI50: 52.6 µM (inactive)
OVCAR-4
  GI50: > 100 µM (inactive)
OVCAR-5
  GI50: > 100 µM (inactive)
OVCAR-8
  GI50: 52.6 µM (inactive)
PC-3
  GI50: 44.7 µM (inactive)
RPMI-8226
  GI50: 49.8 µM (inactive)
RXF 393
  GI50: 37.6 µM (inactive)
SF-268
  GI50: 61.2 µM (inactive)
SF-295
  GI50: 44.5 µM (inactive)
SF-539
  GI50: 74.6 µM (inactive)
SK-MEL-28
  GI50: 80.7 µM (inactive)
SK-MEL-2
  GI50: > 100 µM (inactive)
SK-OV-3
  GI50: > 100 µM (inactive)
SN12C
  GI50: > 100 µM (inactive)
SNB-19
  GI50: 83.9 µM (inactive)
SNB-75
  GI50: 32.4 µM (inactive)
SR
  GI50: 3.37 µM (inactive)
SW-620
  GI50: > 100 µM (inactive)
T47D
  GI50: 65.5 µM (inactive)
TK-10
  GI50: > 100 µM (inactive)
U-251
  GI50: 48.1 µM (inactive)
UACC-257
  GI50: 43 µM (inactive)
UACC-62
  GI50: 58.5 µM (inactive)
UO-31
  GI50: 36.8 µM (inactive)
